{"source": "ChEMBL document CHEMBL3286339", "about": "“Synthesis and in vivo SAR study of indolin-2-one-based multi-targeted inhibitors as potential anticancer agents” (Eur J Med Chem, 2014)", "key": {"[1]": {"target": "T1, Fibroblast growth factor receptor 1 (Homo sapiens, UniProt P11362)", "experiment": "Binding affinity to FGFR1 (unknown origin)"}, "[2]": {"target": "T2, Vascular endothelial growth factor receptor 3 (Homo sapiens, UniProt P35916)", "experiment": "Binding affinity to VEGFR3 (unknown origin)"}, "[3]": {"target": "Voltage-gated inwardly rectifying potassium channel KCNH2 (Homo sapiens, UniProt Q12809)", "experiment": "Inhibition of human ERG"}, "[4]": {"target": "Serine/threonine-protein kinase Chk1 (Homo sapiens, UniProt O14757)", "experiment": "Binding affinity to CHK1 (unknown origin)"}, "Aorta [5]": {"system": "Aorta", "experiment": "Inhibition of micrangium generation in Sprague-Dawley rat aortic ring at 0.2 ug/ml after 6 days by inverted microscopic analysis", "type": "functional, tissue-based"}, "[6]": {"experiment": "Antiproliferative activity against human Bel7402 cells after 72 hrs by MTT assay", "type": "functional, cell-based", "conditions": "Bel-7402, 72 h"}, "[7]": {"target": "T3, Macrophage colony-stimulating factor 1 receptor (Homo sapiens, UniProt P07333)", "T3 sequence (P07333 whole entry)": "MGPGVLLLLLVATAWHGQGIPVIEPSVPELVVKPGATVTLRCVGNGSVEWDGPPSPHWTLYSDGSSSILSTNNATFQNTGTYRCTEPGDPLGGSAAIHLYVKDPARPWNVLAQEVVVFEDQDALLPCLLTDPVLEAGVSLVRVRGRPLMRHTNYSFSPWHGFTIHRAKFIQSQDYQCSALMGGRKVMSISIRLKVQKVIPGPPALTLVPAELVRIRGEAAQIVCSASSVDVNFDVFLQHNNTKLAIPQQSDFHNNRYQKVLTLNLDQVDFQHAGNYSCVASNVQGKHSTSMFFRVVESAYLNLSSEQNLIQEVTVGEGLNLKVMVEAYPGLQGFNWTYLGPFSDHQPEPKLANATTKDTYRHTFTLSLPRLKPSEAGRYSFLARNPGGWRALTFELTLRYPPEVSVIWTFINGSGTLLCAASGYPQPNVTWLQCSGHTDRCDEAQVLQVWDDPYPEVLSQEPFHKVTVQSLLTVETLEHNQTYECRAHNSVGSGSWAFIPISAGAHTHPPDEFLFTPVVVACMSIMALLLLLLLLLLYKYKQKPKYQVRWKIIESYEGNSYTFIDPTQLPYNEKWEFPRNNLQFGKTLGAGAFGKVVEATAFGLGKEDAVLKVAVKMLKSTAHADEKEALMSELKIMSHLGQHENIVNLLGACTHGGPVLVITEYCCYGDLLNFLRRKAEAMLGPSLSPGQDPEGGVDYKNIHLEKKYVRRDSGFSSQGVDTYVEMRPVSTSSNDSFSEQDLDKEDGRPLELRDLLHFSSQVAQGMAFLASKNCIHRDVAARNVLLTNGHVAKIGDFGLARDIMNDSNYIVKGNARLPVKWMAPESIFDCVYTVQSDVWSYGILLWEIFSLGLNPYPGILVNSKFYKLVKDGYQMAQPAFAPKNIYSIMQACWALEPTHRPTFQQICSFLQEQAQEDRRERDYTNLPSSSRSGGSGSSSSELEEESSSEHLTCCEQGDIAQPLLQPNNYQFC", "experiment": "Inhibition of FMS (unknown origin) at 1 uM relative to control"}, "[8]": {"target": "T4, ALK tyrosine kinase receptor (Homo sapiens, UniProt Q9UM73)", "conditions": "1 uM", "description": "Inhibition of ALK (unknown origin) at 1 uM relative to control"}, "[9]": {"target": "Serine/threonine-protein kinase Chk1 (Homo sapiens) (UniProt O14757)", "experiment": "Inhibition of CHK1 (unknown origin) at 1 uM relative to control"}, "[10]": {"target": "T5, Platelet-derived growth factor receptor beta (Homo sapiens, UniProt P09619)", "T5 sequence (P09619 whole entry)": "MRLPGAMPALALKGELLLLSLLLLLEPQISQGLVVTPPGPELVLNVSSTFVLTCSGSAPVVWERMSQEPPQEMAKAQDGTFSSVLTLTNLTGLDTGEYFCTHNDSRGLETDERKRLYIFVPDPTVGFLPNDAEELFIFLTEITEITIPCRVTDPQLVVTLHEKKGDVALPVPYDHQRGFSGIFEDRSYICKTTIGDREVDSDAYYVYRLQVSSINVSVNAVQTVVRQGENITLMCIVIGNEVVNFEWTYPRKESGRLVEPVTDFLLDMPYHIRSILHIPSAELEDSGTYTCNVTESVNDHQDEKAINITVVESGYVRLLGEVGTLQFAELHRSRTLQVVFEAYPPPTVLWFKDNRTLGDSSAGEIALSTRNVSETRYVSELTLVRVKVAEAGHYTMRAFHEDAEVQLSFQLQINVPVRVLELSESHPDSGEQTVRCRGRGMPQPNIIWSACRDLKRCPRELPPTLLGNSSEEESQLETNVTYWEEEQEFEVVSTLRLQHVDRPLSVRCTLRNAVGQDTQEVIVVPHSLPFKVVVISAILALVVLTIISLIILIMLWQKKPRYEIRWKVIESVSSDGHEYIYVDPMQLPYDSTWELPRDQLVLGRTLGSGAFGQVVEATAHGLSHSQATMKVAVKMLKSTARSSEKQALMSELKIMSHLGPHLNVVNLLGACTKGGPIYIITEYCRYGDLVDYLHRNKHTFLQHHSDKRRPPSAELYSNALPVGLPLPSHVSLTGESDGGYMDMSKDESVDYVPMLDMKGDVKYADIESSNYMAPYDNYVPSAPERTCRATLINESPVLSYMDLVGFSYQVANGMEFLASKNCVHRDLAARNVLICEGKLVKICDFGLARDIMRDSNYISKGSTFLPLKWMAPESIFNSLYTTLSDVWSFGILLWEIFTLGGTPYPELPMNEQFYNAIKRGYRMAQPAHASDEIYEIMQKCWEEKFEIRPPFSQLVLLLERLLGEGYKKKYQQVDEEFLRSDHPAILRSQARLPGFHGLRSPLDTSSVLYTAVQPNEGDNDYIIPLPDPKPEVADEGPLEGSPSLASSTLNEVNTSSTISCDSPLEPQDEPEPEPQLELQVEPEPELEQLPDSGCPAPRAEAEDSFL", "experiment": "Inhibition of PDGFR-beta (unknown origin) at 1 uM relative to control"}, "Focal adhesion kinase 1 [11]": {"target": "T6, Focal adhesion kinase 1 (Homo sapiens, UniProt Q05397)", "experiment": "Binding affinity to FAK (unknown origin)"}, "[12]": {"target": "Tyrosine-protein kinase ABL2 (Homo sapiens, UniProt P42684)", "experiment": "Inhibition of ARG (unknown origin) at 1 uM relative to control"}, "[13]": {"experiment": "Solubility of the compound in water", "type": "physicochemical", "conditions": "buffer"}, "[14]": {"target": "T2, Vascular endothelial growth factor receptor 3", "conditions": "1 uM", "description": "Inhibition of VEGFR3 (unknown origin) at 1 uM relative to control"}, "[15]": {"target": "T7, Proto-oncogene tyrosine-protein kinase receptor Ret (Homo sapiens, UniProt P07949)", "T7 sequence (P07949 whole entry)": "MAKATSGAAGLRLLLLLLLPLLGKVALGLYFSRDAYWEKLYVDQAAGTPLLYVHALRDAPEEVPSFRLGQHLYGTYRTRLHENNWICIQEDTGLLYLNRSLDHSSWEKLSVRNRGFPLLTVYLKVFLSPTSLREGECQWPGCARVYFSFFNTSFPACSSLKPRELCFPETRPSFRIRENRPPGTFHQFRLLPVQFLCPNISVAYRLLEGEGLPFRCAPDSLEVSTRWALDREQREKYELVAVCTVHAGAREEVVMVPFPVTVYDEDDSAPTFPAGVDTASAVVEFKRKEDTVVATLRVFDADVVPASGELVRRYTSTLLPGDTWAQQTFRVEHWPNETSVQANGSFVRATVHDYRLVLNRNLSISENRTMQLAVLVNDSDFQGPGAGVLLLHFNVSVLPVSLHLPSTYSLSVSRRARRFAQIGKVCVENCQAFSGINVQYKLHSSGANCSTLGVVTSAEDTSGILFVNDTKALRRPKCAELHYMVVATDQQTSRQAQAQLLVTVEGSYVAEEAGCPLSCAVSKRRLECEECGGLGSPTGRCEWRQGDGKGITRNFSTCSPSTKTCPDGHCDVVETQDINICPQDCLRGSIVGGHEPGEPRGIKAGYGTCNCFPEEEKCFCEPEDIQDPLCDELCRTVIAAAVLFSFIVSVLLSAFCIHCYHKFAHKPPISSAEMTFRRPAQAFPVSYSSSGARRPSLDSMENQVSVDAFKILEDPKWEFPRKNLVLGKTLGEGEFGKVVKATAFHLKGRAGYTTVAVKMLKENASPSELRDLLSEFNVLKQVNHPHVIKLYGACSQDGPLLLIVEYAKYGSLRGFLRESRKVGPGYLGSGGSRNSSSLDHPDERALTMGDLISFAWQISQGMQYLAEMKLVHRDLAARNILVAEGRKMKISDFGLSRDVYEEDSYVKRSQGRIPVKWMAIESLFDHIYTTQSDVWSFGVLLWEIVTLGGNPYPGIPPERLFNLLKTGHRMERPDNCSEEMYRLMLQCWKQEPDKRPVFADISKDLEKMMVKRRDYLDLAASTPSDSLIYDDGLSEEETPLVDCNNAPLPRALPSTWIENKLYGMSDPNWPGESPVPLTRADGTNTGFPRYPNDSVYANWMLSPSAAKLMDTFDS", "conditions": "1 uM", "description": "Inhibition of RET (unknown origin) at 1 uM relative to control"}, "[16]": {"target": "Fibroblast growth factor receptor 3 (Homo sapiens, UniProt P22607)", "conditions": "1 uM", "description": "Inhibition of FGFR3 (unknown origin) at 1 uM relative to control"}, "NCI-H526": {"system": "NCI-H526", "experiment": "Antiproliferative activity against human NCI-H526 cells after 72 hrs by MTT assay", "type": "functional, cell-based", "conditions": "NCI-H526, 72 h"}, "[17]": {"experiment": "Antiproliferative activity against human LO2 cells after 72 hrs by MTT assay", "type": "cell-based", "conditions": "L02, 72 h"}, "[18]": {"target": "T8, Tyrosine-protein kinase ABL1 (Homo sapiens, UniProt P00519)", "T8 sequence (P00519 whole entry)": "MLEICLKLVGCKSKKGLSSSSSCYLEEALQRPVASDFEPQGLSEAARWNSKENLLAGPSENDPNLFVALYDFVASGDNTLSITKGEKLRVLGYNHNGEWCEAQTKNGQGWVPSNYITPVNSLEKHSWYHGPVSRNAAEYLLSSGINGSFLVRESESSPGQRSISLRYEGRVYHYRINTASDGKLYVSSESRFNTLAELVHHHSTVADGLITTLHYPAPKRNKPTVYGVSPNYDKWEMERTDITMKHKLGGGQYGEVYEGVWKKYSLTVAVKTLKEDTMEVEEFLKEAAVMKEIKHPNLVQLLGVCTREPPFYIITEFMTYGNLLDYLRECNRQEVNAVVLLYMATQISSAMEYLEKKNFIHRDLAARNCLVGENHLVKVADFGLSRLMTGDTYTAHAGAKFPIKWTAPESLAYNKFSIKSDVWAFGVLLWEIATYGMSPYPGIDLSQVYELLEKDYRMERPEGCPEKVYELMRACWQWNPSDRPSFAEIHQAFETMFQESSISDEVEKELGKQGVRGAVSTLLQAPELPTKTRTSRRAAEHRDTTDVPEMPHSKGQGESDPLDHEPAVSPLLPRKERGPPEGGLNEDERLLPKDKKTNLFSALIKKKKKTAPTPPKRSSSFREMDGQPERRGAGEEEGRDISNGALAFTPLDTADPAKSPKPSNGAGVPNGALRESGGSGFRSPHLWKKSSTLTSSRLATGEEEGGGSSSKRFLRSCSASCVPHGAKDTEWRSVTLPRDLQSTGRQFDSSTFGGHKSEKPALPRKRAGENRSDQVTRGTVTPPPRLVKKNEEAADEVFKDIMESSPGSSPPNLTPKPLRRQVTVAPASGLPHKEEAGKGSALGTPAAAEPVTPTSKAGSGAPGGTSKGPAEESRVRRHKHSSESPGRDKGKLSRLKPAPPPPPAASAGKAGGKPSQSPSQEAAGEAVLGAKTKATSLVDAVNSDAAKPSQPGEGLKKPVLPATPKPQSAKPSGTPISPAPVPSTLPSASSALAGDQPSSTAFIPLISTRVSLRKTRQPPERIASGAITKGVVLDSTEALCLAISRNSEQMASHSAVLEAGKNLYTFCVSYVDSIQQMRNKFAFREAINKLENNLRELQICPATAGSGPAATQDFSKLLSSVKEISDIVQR", "experiment": "Binding affinity to ABL (unknown origin)"}, "[19]": {"target": "Vascular endothelial growth factor receptor 1 (Homo sapiens, UniProt P17948)", "experiment": "Binding affinity to VEGFR1 (unknown origin)"}, "[20]": {"experiment": "Antiproliferative activity against human HK2 cells after 72 hrs by MTT assay", "type": "cell-based", "conditions": "HK-2, 72 h"}, "[21]": {"target": "Phosphorylase b kinase gamma catalytic chain, liver/testis isoform (Homo sapiens) (UniProt P15735)", "experiment": "Inhibition of PHKgamma2 (unknown origin) at 1 uM relative to control"}, "Mus musculus [22]": {"system": "Mus musculus", "experiment": "Toxicity in BALB/c nude mouse xenografted with human NCI-H460 cells assessed as hematuria at 40 mg/kg/day administered qd", "type": "organism-based", "conditions": "in vivo"}, "TT": {"system": "TT", "experiment": "Antiproliferative activity against human TT cells pretreated for 72 hrs followed by compound-washout measured after 72 hrs by MTT assay", "type": "functional, cell-based"}, "Focal adhesion kinase 1 [23]": {"target": "T6, Focal adhesion kinase 1", "experiment": "Inhibition of FAK (unknown origin) at 1 uM relative to control"}, "[24]": {"target": "T5, Platelet-derived growth factor receptor beta", "experiment": "Binding affinity to PDGFR-beta (unknown origin)"}, "[25]": {"target": "T3, Macrophage colony-stimulating factor 1 receptor", "experiment": "Binding affinity to FMS (unknown origin)"}, "[26]": {"target": "T1, Fibroblast growth factor receptor 1", "experiment": "Inhibition of FGFR1 (unknown origin) at 1 uM relative to control"}, "[27]": {"target": "T9, Tyrosine-protein kinase Lck (Homo sapiens, UniProt P06239)", "conditions": "1 uM", "description": "Inhibition of LCK (unknown origin) at 1 uM relative to control"}, "[28]": {"target": "T4, ALK tyrosine kinase receptor", "experiment": "Binding affinity to ALK (unknown origin)"}, "Mus musculus [29]": {"system": "Mus musculus", "experiment": "Toxicity in BALB/c nude mouse xenografted with human NCI-H460 cells assessed as bloody stool at 40 mg/kg/day administered qd", "type": "organism-based", "conditions": "in vivo"}, "[30]": {"target": "Tyrosine-protein kinase Fyn (Homo sapiens, UniProt P06241)", "sequence (P06241 2-537 limits assumed)": "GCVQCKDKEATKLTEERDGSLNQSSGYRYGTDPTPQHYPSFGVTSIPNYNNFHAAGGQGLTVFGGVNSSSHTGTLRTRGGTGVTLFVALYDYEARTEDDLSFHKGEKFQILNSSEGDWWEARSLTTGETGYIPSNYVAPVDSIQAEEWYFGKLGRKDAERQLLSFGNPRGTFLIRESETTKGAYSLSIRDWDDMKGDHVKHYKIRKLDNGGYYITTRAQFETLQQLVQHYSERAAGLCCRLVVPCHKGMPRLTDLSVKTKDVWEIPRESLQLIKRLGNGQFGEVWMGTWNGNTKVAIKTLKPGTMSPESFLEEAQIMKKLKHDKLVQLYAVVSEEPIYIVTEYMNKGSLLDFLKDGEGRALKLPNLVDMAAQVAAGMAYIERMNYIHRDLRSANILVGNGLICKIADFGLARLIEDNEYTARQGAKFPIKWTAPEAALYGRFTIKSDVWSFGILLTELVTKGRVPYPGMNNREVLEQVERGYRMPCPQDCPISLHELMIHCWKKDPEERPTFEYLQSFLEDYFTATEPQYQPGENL", "conditions": "1 uM", "description": "Inhibition of FYN (unknown origin) at 1 uM relative to control"}, "[31]": {"target": "T8, Tyrosine-protein kinase ABL1", "experiment": "Inhibition of ABL (unknown origin) at 1 uM relative to control"}, "[32]": {"target": "T10, Vascular endothelial growth factor receptor 2 (Homo sapiens, UniProt P35968)", "experiment": "Binding affinity to VEGFR2 (unknown origin)"}, "[33]": {"target": "T9, Tyrosine-protein kinase Lck", "experiment": "Binding affinity to LCK (unknown origin)"}, "[34]": {"target": "Tyrosine-protein kinase receptor UFO (Homo sapiens, UniProt P30530)", "experiment": "Binding affinity to AXL (unknown origin)"}, "[35]": {"target": "T11, Protein-tyrosine kinase 2-beta (Homo sapiens, UniProt Q14289)", "experiment": "Inhibition of PYK2 (unknown origin) at 1 uM relative to control"}, "[36]": {"experiment": "Antiproliferative activity against human MV411 cells after 48 hrs by MTT assay", "type": "functional, cell-based", "conditions": "MV4-11, 48 h"}, "[37]": {"target": "T11, Protein-tyrosine kinase 2-beta", "experiment": "Binding affinity to PYK2 (unknown origin)"}, "HT-29": {"system": "HT-29", "experiment": "Antitumor activity against human HT-29 cells xenografted in BALB/c nude mouse assessed as tumor growth inhibition at 80 mg/kg/day administered qd measured up to day 21 relative to control", "type": "functional", "design": "scale not given: the % may be the effect or the level left"}, "[38]": {"target": "Receptor-type tyrosine-protein kinase FLT3 (Homo sapiens) (UniProt P36888)", "experiment": "Inhibition of FLT3 (unknown origin) at 1 uM relative to control"}, "[39]": {"target": "T10, Vascular endothelial growth factor receptor 2", "conditions": "1 uM", "description": "Inhibition of VEGFR2 (unknown origin) at 1 uM relative to control"}, "Mus musculus [40]": {"system": "Mus musculus", "experiment": "Toxicity in BALB/c nude mouse xenografted with human HT-29 cells assessed as hematuria at 80 mg/kg/day administered qd measured up to day 21", "type": "organism-based", "conditions": "in vivo"}, "[41]": {"experiment": "Antiproliferative activity against human NCI-H3122 cells after 72 hrs by MTT assay", "type": "functional, cell-based", "conditions": "NCI-H3122, 72 h"}, "Mus musculus [42]": {"system": "Mus musculus", "experiment": "Toxicity in BALB/c nude mouse xenografted with human HT-29 cells assessed as change in body weight at 80 mg/kg/day administered qd relative to control", "type": "organism-based", "conditions": "in vivo"}, "Mus musculus [43]": {"system": "Mus musculus", "experiment": "Toxicity in BALB/c nude mouse xenografted with human HT-29 cells assessed as severe weight loss at 80 mg/kg/day administered qd", "type": "organism-based", "conditions": "in vivo"}, "Aorta [44]": {"system": "Aorta", "experiment": "Antiangiogenic activity in Sprague-Dawley rat aortic ring at 0.2 ug/ml after 6 days by inverted microscopic analysis", "type": "functional, tissue-based"}, "[45]": {"target": "T7, Proto-oncogene tyrosine-protein kinase receptor Ret", "experiment": "Binding affinity to RET (unknown origin)"}, "[46]": {"target": "Mast/stem cell growth factor receptor Kit (Homo sapiens, UniProt P10721)", "conditions": "1 uM", "description": "Inhibition of c-KIT (unknown origin) at 1 uM relative to control"}}, "note": "The source made the active and inactive calls. The calls are words filed in the database; no cut-off is given here.", "data": [{"smiles": "Cc1[nH]c(/C=C2\\C(=O)Nc3ccc(F)cc32)c(C)c1NC(=O)CCN1CCN(C)CC1", "values": [{"measurement": "Ki", "setting": "[1]", "value": 350, "unit": "nM"}, {"measurement": "Ki", "setting": "[2]", "value": "< 0.3", "unit": "nM"}, {"measurement": "IC50", "setting": "[3]", "value": 18.8, "unit": "µM"}, {"measurement": "Ki", "setting": "[4]", "value": 110, "unit": "nM"}, {"measurement": "inhibition", "setting": "Aorta [5]", "value": "Active"}, {"measurement": "IC50", "setting": "[6]", "value": 14.7, "unit": "µM"}, {"measurement": "inhibition", "setting": "[7]", "value": 84, "unit": "%"}, {"measurement": "inhibition", "setting": "[8]", "value": 87, "unit": "%"}, {"measurement": "inhibition", "setting": "[9]", "value": 76, "unit": "%"}, {"measurement": "inhibition", "setting": "[10]", "value": 79, "unit": "%"}, {"measurement": "Ki", "setting": "Focal adhesion kinase 1 [11]", "value": 530, "unit": "nM"}, {"measurement": "inhibition", "setting": "[12]", "value": 76, "unit": "%"}, {"measurement": "solubility", "setting": "[13]", "value": "soluble"}, {"measurement": "inhibition", "setting": "[14]", "value": 99, "unit": "%"}, {"measurement": "inhibition", "setting": "[15]", "value": 99, "unit": "%"}, {"measurement": "inhibition", "setting": "[16]", "value": 91, "unit": "%"}, {"measurement": "IC50", "setting": "NCI-H526", "value": 20.6, "unit": "µM"}, {"measurement": "IC50", "setting": "[17]", "value": 41.4, "unit": "µM"}, {"measurement": "Ki", "setting": "[18]", "value": 120, "unit": "nM"}, {"measurement": "Ki", "setting": "[19]", "value": 1100, "unit": "nM"}, {"measurement": "IC50", "setting": "[20]", "value": 6.85, "unit": "µM"}, {"measurement": "inhibition", "setting": "[21]", "value": 51, "unit": "%"}, {"measurement": "Activity", "setting": "Mus musculus [22]", "value": "Non-toxic"}, {"measurement": "IC50", "setting": "TT", "value": 70, "unit": "nM"}, {"measurement": "inhibition", "setting": "Focal adhesion kinase 1 [23]", "value": 66, "unit": "%"}, {"measurement": "Ki", "setting": "[24]", "value": 19, "unit": "nM"}, {"measurement": "Ki", "setting": "[25]", "value": 230, "unit": "nM"}, {"measurement": "inhibition", "setting": "[26]", "value": 71, "unit": "%"}, {"measurement": "inhibition", "setting": "[27]", "value": 44, "unit": "%"}, {"measurement": "Ki", "setting": "[28]", "value": 95, "unit": "nM"}, {"measurement": "Activity", "setting": "Mus musculus [29]", "value": "Non-toxic"}, {"measurement": "inhibition", "setting": "[30]", "value": 44, "unit": "%"}, {"measurement": "inhibition", "setting": "[31]", "value": 93, "unit": "%"}, {"measurement": "Ki", "setting": "[32]", "value": 3.8, "unit": "nM"}, {"measurement": "Ki", "setting": "[33]", "value": 2000, "unit": "nM"}, {"measurement": "Ki", "setting": "[34]", "value": 63, "unit": "nM"}, {"measurement": "inhibition", "setting": "[35]", "value": 72, "unit": "%"}, {"measurement": "IC50", "setting": "[36]", "value": 8, "unit": "nM"}, {"measurement": "Ki", "setting": "[37]", "value": 340, "unit": "nM"}, {"measurement": "Activity", "setting": "HT-29", "value": 84.7, "unit": "%"}, {"measurement": "inhibition", "setting": "[38]", "value": 100, "unit": "%"}, {"measurement": "inhibition", "setting": "[39]", "value": 99, "unit": "%"}, {"measurement": "Activity", "setting": "Mus musculus [40]", "value": "Non-toxic"}, {"measurement": "IC50", "setting": "[41]", "value": 17.1, "unit": "µM"}, {"measurement": "Activity", "setting": "Mus musculus [42]", "value": 6.2, "unit": "%"}, {"measurement": "Activity", "setting": "Mus musculus [43]", "value": "Non-toxic"}, {"measurement": "inhibition", "setting": "Aorta [44]", "value": "Active"}, {"measurement": "Ki", "setting": "[45]", "value": 18, "unit": "nM"}, {"measurement": "inhibition", "setting": "[46]", "value": 87, "unit": "%"}]}]}
